One data set deals with 9 L (rat glioma) cells. As to the kind of experiment: 9 L intracranial syngeneic rat glioma model, overall survival. Type of data set: in vivo. To be noted: for Median survival: F344 rats, intracranial 9 L, PAC-1 50 mg/kg oral gavage days 0-4, TMZ 50 mg/kg oral gavage days 5-9, 8 rats per group.
Data set [1] can be described thus: Neurotoxicity of oral PAC-1 in mice. To be noted: given orally at up to 200 mg/kg. Type of data set: in vivo.
In a further data set the test system is 9 L cell line. As to the kind of experiment: IC50 of PAC-1 with the 9 L cell line. Type of data set: cell-based. To be noted: Rattus norvegicus; 72 hour experiment; initial assessment. The method, then:
The initial assessment for the IC50 for PAC-1 with the 9 L cell line is about 7 μM (72 hour experiment).

A further data set relates to K7M2 cells. As to the kind of experiment: Mouse model of metastatic osteosarcoma, survival. Type of data set: in vivo. Conditions: oral PAC-1 100 mg/kg in HPβCD and TMZ 50 mg/kg, sequential, daily for five consecutive days, from seven days after K7M2 injection; n=8 mice per group. The method, then:
FIG. 4. PAC-1 synergizes with TMZ to extend survival in a mouse model of metastatic osteosarcoma. Seven days after injection of K7M2 cells, mice were treated orally with PAC-1 (100 mg/kg in HPβCD), TMZ (50 mg/kg […]), or a sequential treatment with each, daily for five consecutive days; n=8 mice per group.

The values below come from US12433885B2, “Procaspase combination therapy for glioblastoma” (THE BOARD OF TRUSTEES OF THE UNIVERSITY OF ILLINOIS, priority 2012, dated 2025).

The IC50 is the midpoint of a concentration-inhibition curve.

Description for 9 L (rat glioma) cells: 9 L (rat glioma) cells were intracranially implanted in rats. PAC-1 (50 mg/kg in water) was administered via oral gavage on days 0-4, and TMZ (50 mg/kg in water) was given via oral gavage on days 5-9; 8 rates per group.
The in vivo rat experiments employed 9 L cells, a very aggressive tumor model, implanted inter-cranially in rats in 3 treatment groups (PAC-1 alone, TMZ alone, and the combination of PAC-1 and TMZ) and one control group.
PAC-1 was suspended in water, and given to the rats via oral gavage at 50 mg/kg (a relatively low dose) for 5 days followed by five days of TMZ dosing.
PAC-1 (50 mg/kg in water) was administered via oral gavage on days 0-4, and TMZ (50 mg/kg in H2O) was given via oral gavage on days 5-9.
9 L gliosarcoma was maintained as a solid subcutaneous mass in the flanks of F344 rats. For intracranial implantation, the 9 L gliosarcoma tumor was surgically excised from the carrier animal and sliced into 1 mm^3 pieces at the time of implantation.
The animals were divided into the following four experimental groups with eight animals per group: (1) Control, (2) PAC-1 alone, (3) TMZ alone, and (4) PAC-1+TMZ. The control animals only received water. Two groups of animals from PAC-1 alone and PAC-1+TMZ received an oral gavage of PAC-1 suspended in water starting day 0 six hours post implantation. PAC-1 was administered only for 5 days from day 0 to day 4. The animals from TMZ alone and PAC-1+TMZ groups received 5 doses of TMZ in water administered orally from day 5 to day 9.

For the compound `Cn1nnc2c(C(N)=O)ncn2c1=O` [TMZ, Temozolomide, reference compound], the Median survival in the data set with 9 L (rat glioma) cells is listed as 20 days.

`C=CCc1cccc(/C=N/NC(=O)CN2CCN(Cc3ccccc3)CC2)c1O` [PAC-1, 2-(4-benzylpiperazin-1-yl)-N-[(2-hydroxy-3-prop-2-enyl-phenyl)methylideneamino]acetamide]: the Neurotoxicity entry in data set [1] is “No neurotoxicity was observed”; in the data set on 9 L (rat glioma) cells (rats, PAC-1 50 mg/kg oral gavage for 5 days followed by five days of TMZ dosing) it was “no neurotoxicity was observed”. Further, in the data set on 9 L cell line, the IC50 is about 7 µM. Further, in the data set with 9 L (rat glioma) cells, the Median survival came out at 13.5 days. Further, the “Synergy with TMZ to extend survival” value with K7M2 cells was “synergizes”.
